Measured values taken from US10071082B2, “Antimicrobial agents” (Rutgers, The State University of New Jersey, priority 2013, dated 2018).
Converted amounts (≈) assume the structure as drawn.

Tests used:
MRSA = assay: Test A antibacterial assay, broth microdilution MIC; type: cell-based; settings: Staphylococcus aureus, read-out: MIC MRSA
Procedure: (§1) Antibacterial activity can be determined as per Clinical and Laboratory Standards Institute (CLSI) guidelines using a broth microdilution assay in which log-phase bacteria are grown at 37° C. in appropriate medium containing two-fold serial dilutions of a compound to yield final concentrations ranging from 256 to 0.06 μg/mL. For determination of minimal inhibitory concentration (MIC) values, bacterial growth is monitored after 24 to 48 hours by measuring optical density at 600 nm.

MSSA = assay: as above; type: cell-based; settings: Staphylococcus aureus, read-out: MIC MSSA
Procedure: as §1

[1] = tested on: S. aureus ATCC 19636 (MSSA); assay: Test D in vivo efficacy, mouse peritonitis model of systemic infection; settings: mice
[2] = tested on: S. aureus ATCC 43300 (MRSA); assay: as above; settings: mice, p.o.

CN1CCC(C(=O)NC(=O)c2c(F)ccc(OCc3nc4cc(Cl)cnc4s3)c2F)CC1 [Example 17]
MIC (MRSA): 4 µg/mL (≈ 8.32 µM) | MIC (MSSA): 2 µg/mL (≈ 4.16 µM) | Survival (%) ([1]; i.v., 1x, total dose 0.6 mg/mouse, first dose immediately prior to infection, 24 Hrs): 0% | Survival (%) ([1]; i.v., 1x, total dose 0.6 mg/mouse, first dose immediately prior to infection, 48 Hrs): 0% | Survival (%) ([1]; i.v., 1x, total dose 0.6 mg/mouse, first dose immediately prior to infection, 72 Hrs): 0% | Survival (%) ([1]; i.v., 2x, total dose 1.2 mg/mouse, first dose immediately prior to infection, 24 Hrs): 0% | Survival (%) ([1]; i.v., 2x, total dose 1.2 mg/mouse, first dose immediately prior to infection, 48 Hrs): 0% | Survival (%) ([1]; i.v., 2x, total dose 1.2 mg/mouse, first dose immediately prior to infection, 72 Hrs): 0% | Survival (%) ([1]; i.v., 3x, total dose 1.8 mg/mouse, first dose immediately prior to infection, 24 Hrs): 33.3% | Survival (%) ([1]; i.v., 3x, total dose 1.8 mg/mouse, first dose immediately prior to infection, 48 Hrs): 33.3% | Survival (%) ([1]; i.v., 3x, total dose 1.8 mg/mouse, first dose immediately prior to infection, 72 Hrs): 33.3% | Survival (%) ([1]; i.v., 4x, total dose 2.4 mg/mouse, first dose immediately prior to infection, 24 Hrs): 83.3% | Survival (%) ([1]; i.v., 4x, total dose 2.4 mg/mouse, first dose immediately prior to infection, 48 Hrs): 83.3% | Survival (%) ([1]; i.v., 4x, total dose 2.4 mg/mouse, first dose immediately prior to infection, 72 Hrs): 83.3% | Survival (%) ([1]; p.o., 1x, total dose 0.8 mg/mouse, first dose 5 minutes prior to infection, 24 Hrs): 0% | Survival (%) ([1]; p.o., 1x, total dose 0.8 mg/mouse, first dose 5 minutes prior to infection, 48 Hrs): 0% | Survival (%) ([1]; p.o., 1x, total dose 0.8 mg/mouse, first dose 5 minutes prior to infection, 72 Hrs): 0% | Survival (%) ([1]; p.o., 2x, total dose 1.6 mg/mouse, first dose 5 minutes prior to infection, 24 Hrs): 0% | Survival (%) ([1]; p.o., 2x, total dose 1.6 mg/mouse, first dose 5 minutes prior to infection, 48 Hrs): 0% | Survival (%) ([1]; p.o., 2x, total dose 1.6 mg/mouse, first dose 5 minutes prior to infection, 72 Hrs): 0% | Survival (%) ([1]; p.o., 4x, total dose 3.2 mg/mouse, 24 Hrs): 83.3% | Survival (%) ([1]; p.o., 4x, total dose 3.2 mg/mouse, 48 Hrs): 83.3% | Survival (%) ([1]; p.o., 4x, total dose 3.2 mg/mouse, 72 Hrs): 83.3% | Survival (%) ([1]; p.o., 4x, total dose 3.2 mg/mouse, first dose 5 minutes prior to infection, 24 Hrs): 100% | Survival (%) ([1]; p.o., 4x, total dose 3.2 mg/mouse, first dose 5 minutes prior to infection, 48 Hrs): 100% | Survival (%) ([1]; p.o., 4x, total dose 3.2 mg/mouse, first dose 5 minutes prior to infection, 72 Hrs): 100% | Survival (%) ([2]; 3x, total dose 2.4 mg/mouse, first dose 5 minutes prior to infection, 24 Hrs): 66.7% | Survival (%) ([2]; 3x, total dose 2.4 mg/mouse, first dose 5 minutes prior to infection, 48 Hrs): 16.7% | Survival (%) ([2]; 3x, total dose 2.4 mg/mouse, first dose 5 minutes prior to infection, 72 Hrs): 16.7% | Survival (%) ([2]; 6x, total dose 4.8 mg/mouse, 24 Hrs): 83.3% | Survival (%) ([2]; 6x, total dose 4.8 mg/mouse, 48 Hrs): 50% | Survival (%) ([2]; 6x, total dose 4.8 mg/mouse, 72 Hrs): 50% | Survival (%) ([2]; 6x, total dose 4.8 mg/mouse, first dose 5 minutes prior to infection, 24 Hrs): 100% | Survival (%) ([2]; 6x, total dose 4.8 mg/mouse, first dose 5 minutes prior to infection, 48 Hrs): 100% | Survival (%) ([2]; 6x, total dose 4.8 mg/mouse, first dose 5 minutes prior to infection, 72 Hrs): 100% | Survival (%) ([2]; 6x, total dose 4.8 mg/mouse, first dose 10 minutes post-infection, 24 Hrs): 100% | Survival (%) ([2]; 6x, total dose 4.8 mg/mouse, first dose 10 minutes post-infection, 48 Hrs): 100% | Survival (%) ([2]; 6x, total dose 4.8 mg/mouse, first dose 10 minutes post-infection, 72 Hrs): 100%
